Laboratory results: US20080109040A1, “METHOD OF TREATING ARRHYTHMIAS” (priority 2002, published 2008)
Like-named read-outs stand apart in the source and are kept apart here.

Columns and labels:
[1] = system: inward rectifier potassium current (IK1); assay: Voltage clamp of inward rectifier IK1 in canine ventricular myocytes; format: cell-based; settings: ranolazine up to 100 μM
Method: Myocytes were isolated by enzymatic dissociation from a wedge-shaped section of the left ventricular free wall supplied by the left circumflex coronary artery. Cells from the epicardial and midmyocardial regions of the left ventricle were used in this study.
Inward rectifier potassium current (IK), slow delayed rectifier potassium current (IKs), and rapid delayed rectifier potassium current (IKr) were recorded at 37° C. using conventional whole cell voltage clamp configuration.
IK1 was measured using an external solution containing 3 μM ouabain and 5 μM nifedipine to block the sodium-potassium pump and L-type calcium current (ICa,L), respectively. […] 5 μM nifedipine was present in the external solution when IKr was being recorded. […]
IKr was measured as the time-dependent tail current elicited at a potential of −40 mV following a short 250 ms depolarizing pulse to 30 mV. Data are presented as mean ±S.E.M. IK1 was recorded during 900 msec voltage steps applied from a holding potential of −40 mV to test potentials ranging from −100 mV to 0 mV, and was characterized as the 5 msec average of the steady state current at the end of the test pulse.
The inward rectifier, IK1, was recorded using perforated-patch voltage clamp techniques. […] Panel B plots composite data illustrating the current-voltage relations constructed from the average current measured at the end of each test pulse

[2] = biological target: T1, L-type calcium current (ICa) (Canis lupus familiaris, UniProt A0A8I3QY31); assay: L-type calcium current voltage clamp in isolated canine left ventricular myocytes; format: cell-based; settings: read-out: Concentration at which ranolazine blocks the calcium channel
T1 construct: Single myocytes were obtained by enzymatic dissociation from a wedge-shaped section of the ventricular free wall; endogenous in cells; host or cells: isolated canine left ventricular myocytes
T1 sequence (A0A8I3QY31 1-2188): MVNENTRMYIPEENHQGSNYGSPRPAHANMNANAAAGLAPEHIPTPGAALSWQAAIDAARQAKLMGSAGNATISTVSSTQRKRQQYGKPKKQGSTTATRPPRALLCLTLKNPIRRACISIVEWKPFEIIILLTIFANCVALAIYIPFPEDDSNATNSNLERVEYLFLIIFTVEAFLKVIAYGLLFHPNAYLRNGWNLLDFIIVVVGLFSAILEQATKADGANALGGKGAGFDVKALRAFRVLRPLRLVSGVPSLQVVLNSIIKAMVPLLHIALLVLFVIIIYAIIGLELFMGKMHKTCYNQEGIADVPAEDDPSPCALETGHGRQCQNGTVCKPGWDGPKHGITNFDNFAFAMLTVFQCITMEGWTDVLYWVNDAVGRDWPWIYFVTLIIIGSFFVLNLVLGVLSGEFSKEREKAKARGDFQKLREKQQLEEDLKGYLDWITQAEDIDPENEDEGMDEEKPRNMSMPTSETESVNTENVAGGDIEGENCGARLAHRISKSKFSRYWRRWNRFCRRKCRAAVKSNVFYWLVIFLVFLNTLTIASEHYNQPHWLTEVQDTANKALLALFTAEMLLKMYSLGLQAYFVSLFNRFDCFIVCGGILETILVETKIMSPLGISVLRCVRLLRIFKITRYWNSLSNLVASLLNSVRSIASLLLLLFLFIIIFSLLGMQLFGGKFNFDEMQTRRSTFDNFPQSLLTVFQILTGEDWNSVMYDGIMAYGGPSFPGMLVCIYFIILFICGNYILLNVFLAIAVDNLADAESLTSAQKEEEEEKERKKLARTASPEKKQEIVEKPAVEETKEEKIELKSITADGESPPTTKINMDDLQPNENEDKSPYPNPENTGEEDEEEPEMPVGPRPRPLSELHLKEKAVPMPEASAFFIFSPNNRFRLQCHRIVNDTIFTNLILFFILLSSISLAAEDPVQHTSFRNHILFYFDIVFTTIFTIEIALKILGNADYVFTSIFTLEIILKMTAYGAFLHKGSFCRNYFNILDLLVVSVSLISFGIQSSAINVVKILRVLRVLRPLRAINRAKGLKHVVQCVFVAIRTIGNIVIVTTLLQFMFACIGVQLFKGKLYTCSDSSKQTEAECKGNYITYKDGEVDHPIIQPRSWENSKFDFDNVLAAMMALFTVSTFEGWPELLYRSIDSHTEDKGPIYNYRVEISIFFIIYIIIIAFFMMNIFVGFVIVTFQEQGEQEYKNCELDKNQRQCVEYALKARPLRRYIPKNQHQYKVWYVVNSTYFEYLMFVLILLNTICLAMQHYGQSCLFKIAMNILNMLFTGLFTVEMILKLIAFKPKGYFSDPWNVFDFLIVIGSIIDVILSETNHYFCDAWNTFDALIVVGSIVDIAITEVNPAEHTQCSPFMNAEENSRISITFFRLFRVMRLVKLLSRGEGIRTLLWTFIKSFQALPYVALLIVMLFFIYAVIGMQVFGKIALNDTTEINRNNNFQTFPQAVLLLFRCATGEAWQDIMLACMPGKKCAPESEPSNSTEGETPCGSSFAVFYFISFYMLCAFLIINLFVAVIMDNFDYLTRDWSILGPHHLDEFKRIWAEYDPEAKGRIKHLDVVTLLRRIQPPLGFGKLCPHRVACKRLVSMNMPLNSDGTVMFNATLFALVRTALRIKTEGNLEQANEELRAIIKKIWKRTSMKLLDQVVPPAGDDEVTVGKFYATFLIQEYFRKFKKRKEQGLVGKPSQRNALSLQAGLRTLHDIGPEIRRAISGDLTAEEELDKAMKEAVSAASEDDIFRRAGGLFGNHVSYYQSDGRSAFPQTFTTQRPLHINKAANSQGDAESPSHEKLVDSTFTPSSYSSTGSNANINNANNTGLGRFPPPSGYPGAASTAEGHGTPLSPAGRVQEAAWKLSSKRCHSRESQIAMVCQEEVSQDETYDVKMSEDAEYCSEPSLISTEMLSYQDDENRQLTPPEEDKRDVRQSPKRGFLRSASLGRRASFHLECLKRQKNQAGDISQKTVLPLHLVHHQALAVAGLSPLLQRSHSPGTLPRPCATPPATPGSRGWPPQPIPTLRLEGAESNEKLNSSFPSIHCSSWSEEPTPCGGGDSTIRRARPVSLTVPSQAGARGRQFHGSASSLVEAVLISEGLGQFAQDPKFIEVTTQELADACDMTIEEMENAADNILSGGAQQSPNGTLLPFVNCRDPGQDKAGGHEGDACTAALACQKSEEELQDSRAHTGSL

[3] = system: transient outward current (Ito); assay: Transient outward current voltage clamp in isolated canine left ventricular myocytes; format: cell-based; settings: for Effect on Ito: any of the test voltages
[4] = system: Purkinje fibers; design: species or system canine; settings: for Amplitude (phase 0) / Overshoot / RMP: BCL = 500 msec
Method: Dogs weighing 20-25 kg were anticoagulated with heparin and anesthetized with pentobarbital (30-35 mg/kg, i.v.). The chest was opened via a left thoracotomy, the heart excised and placed in a cold cardioplegic solution ([K^+]o=8 mmol/L, 4° C.). Free running Purkinje fibers were isolated from the left and right ventricles. The preparations were placed in a tissue bath (5 ml volume with flow rate of 12 ml/min) and allowed to equilibrate for at least 30 min while superfused with an oxygenated Tyrode's solution (pH=7.35, t^0=37±0.5° C.) and paced at a basic cycle length (BCL) of 1 Hz using point stimulation. The composition of the Tyrode's solution was as following (in mM): NaCl 129, KCl 4, NaH2PO4 0.9, NaHCO3 20, CaCl2 1.8, MgSO4 0.5, and D-glucose 5.5.
Action potential recordings: Transmembrane potentials were recorded using standard glass microelectrodes filled with 2.7 M KCl (10 to 20 MΩ DC resistance) connected to a high input-impedance amplification system (World Precision Instruments, Sarasota, Fla., USA).
Control recordings were obtained after a 30 min equilibration period. Increasing concentrations of ranolazine (1, 5, 10, 50, and 100 μM) were evaluated, with recordings started 20 minutes after the addition of each concentration of the drug. The rate-dependence of ranolazine's actions were evaluated by recording action potentials at basic cycle lengths (BCL) of 300, 500, 800, 1000, 2000, and 5000 msec. In this report only BCLs of 500 and 2000 msec are presented as representative of relatively rapid and slow pacing rates.
Because low extracellular K^+ is known to promote drug-induced APD prolongation and early afterdepolarizations, we determined the effects of ranolazine in the presence of normal (4 mM) and low (3 mM) [K^+]o.
In the final phase, we evaluate the effects of ranolazine on EADs induced by d-sotalol (100 μM), a fairly specific IKr blocker.

[5] = ranolazine 1.0 μM, [K+]0 = 3.0 mM
[6] = ranolazine 1.0 μM, [K+]0 = 4.0 mM
[7] = ranolazine 5.0 μM, [K+]0 = 3.0 mM
[8] = ranolazine 5.0 μM, [K+]0 = 4.0 mM
[9] = ranolazine 10.0 μM, [K+]0 = 3.0 mM
[10] = ranolazine 10.0 μM, [K+]0 = 4.0 mM
[11] = ranolazine 50.0 μM, [K+]0 = 3.0 mM
[12] = ranolazine 50.0 μM, [K+]0 = 4.0 mM
[13] = ranolazine 100.0 μM, [K+]0 = 3.0 mM
[14] = ranolazine 100.0 μM, [K+]0 = 4.0 mM

With `COc1ccccc1OCC(O)CN1CCN(CC(=O)Nc2c(C)cccc2C)CC1` (racemic) [ranolazine, N-(2,6-dimethylphenyl)-4-[2-hydroxy-3-(2-methoxyphenoxy)propyl]-1-piperazineacetamide] the “Effect on IK1” value [1] was “no change”, the “Effect on IK1” value ([1]; listed as Ranolazine) was “did not alter” and the IC50 [2] was 296 µM. For the same molecule, the “Effect on Ito” value ([3]; ranolazine 10 μM) was “no effect”, the “Effect on Ito” value ([3]; ranolazine 20 μM) was “no effect” and the “Reduction of peak Ito” value ([3]; ranolazine 50 μM, 4 min) was “less than 10”. The “Reduction of Ito” value ([3]; ranolazine 50 μM, test potential 10 mV) was 10±2%, the “Reduction of Ito” value ([3]; ranolazine 100 μM, test potential 0 mV) was 16±3% and the “Reduction of Ito” value ([3]; ranolazine 100 μM, test potential 10 mV) was 17±4%. For the same molecule, the “Lowest concentration suppressing EADs induced by d-sotalol” value [4] was 5 micromolar/L, the “Amplitude (phase 0)” value [4, 5] was 132 ± 6 and the Overshoot [4, 5] was 40 ± 5. For the same molecule, the RMP [4, 5] was −92 ± 1, the “Amplitude (phase 0)” value [4, 6] was 120 ± 9 and the Overshoot [4, 6] was 32 ± 7. The RMP [4, 6] was −90 ± 2, the “Amplitude (phase 0)” value [4, 7] was 130 ± 5 and the Overshoot [4, 7] was 38 ± 4. For the same molecule, the RMP [4, 7] was −92 ± 1, the “Amplitude (phase 0)” value [4, 8] was 124 ± 3 and the Overshoot [4, 8] was 34 ± 7. For the same molecule, the RMP [4, 8] was −90 ± 2, the “Purkinje fibers in which d-sotalol-induced EADs were abolished” value ([4]; ranolazine 5 μM, d-sotalol 100 μM) was 4 out of 4 and the “Amplitude (phase 0)” value [4, 9] was 128 ± 4. For the same molecule, the Overshoot [4, 9] was 37 ± 4, the RMP [4, 9] was −92 ± 1 and the “Amplitude (phase 0)” value [4, 10] was 122 ± 7. For the same molecule, the Overshoot [4, 10] was 32 ± 6, the RMP [4, 10] was −90 ± 3 and the “Amplitude (phase 0)” value [4, 11] was 121 ± 7. For the same molecule, the Overshoot [4, 11] was 29 ± 6, the RMP [4, 11] was −92 ± 1 and the “Amplitude (phase 0)” value [4, 12] was 117 ± 7. The Overshoot [4, 12] was 28 ± 7, the RMP [4, 12] was −89 ± 3 and the “Amplitude (phase 0)” value [4, 13] was 114 ± 7. The Overshoot [4, 13] was 24 ± 7, the RMP [4, 13] was −90 ± 2 and the “Amplitude (phase 0)” value [4, 14] was 106 ± 12. The Overshoot [4, 14] was 19 ± 11, the RMP [4, 14] was −87 ± 3 and the “Effect on APD” value ([4]; ranolazine 1-10 μM, [K+]o 4 mM) was “either no effect or a relatively small abbreviation”. The “Effect on Vmax” value ([4]; ranolazine 50 and 100 μM) was “significant reduction”, the “Effect on APD90” value ([4]; ranolazine 50 and 100 μM, [K+]o 4 mM) was “markedly abbreviated at slow, but not at rapid pacing rates” and the “Effect on APD50” value ([4]; ranolazine 50 and 100 μM, rapid and slow rates, [K+]o 4 mM) was “significantly abbreviated”.
